Experimental data from publication PMC9000864, “Pentacyclic Triterpenoids from Sabia discolor Dunn and Their α-Glycosidase Inhibitory Activities” (Molecules, 2022).

Molecular target: α-glucosidase
Experiment: α-glucosidase inhibition assay (PNPG method)
Type: biochemical, saccharomyces cerevisiae
Details: for IC50: absorbance at 405 nm, 37 °C, n = 3, read-out: α-glucosidase inhibitory activity IC50; for α-glycosidase inhibitory activity (in words): compared with positive control acarbose
From the text: Altogether, dimethyl sulfoxide (DMSO; Beijing Mr. Lai Treasure Company, Beijing, China); phosphate buffer solution (PBS; HyClone); centrifuge tubes, 96 cell culture plates, and other consumables (NEST Biotechnology Co. Ltd., Beijing, China); and α-glucosidase (Sigma Company, St. Louis, MO, USA) from saccharomyces cerevisiae were obtained for this study. […] The absorbance was read using a microplate reader (Varioskan LUX, Thermo, Waltham, MA, USA) at 405 nm. The results were obtained for at least three independent experiments. The inhibitory activity of α-glucosidase was determined by the PNPG method. […] Then, 20 μL of PNPG (2.5 mmol/L) was added, mixed by shock, and incubated in a 37 °C constant-temperature incubator for 15 min. Then, 80 μL of Na2CO3 […] solution was added to stop the reaction and the absorbance was measured by a microplate reader at 405 nm. […] Inhibition rate = [(OD negative − OD blank) − (OD sample − OD background)]/(OD negative − OD blank) × 100%.

| Compound | IC50 [µM] | α-glycosidase inhibitory activity (in words) |
| --- | --- | --- |
| CC1=CCC2(C)CCC3(C)C(CCC4C5(C)C(O)CC(O)C(C)(C)C5CCC43C)C2C1C (stereo not drawn) [Compound 7, 20-taraxastene-1β, 3β -diol] | 0.56 ± 0.0331 | – |
| C=C(C)[C@@H]1CC[C@]2(CO)CC[C@]3(C)C(CCC4[C@@]5(C)CC[C@H](O)C(C)(C)C5CC[C@]43C)C12 (some centres unmarked) [Compound 15, birch ester alcohol] | 0.09 ± 0.0045 | best activity |
| CC1=CC[C@]2(C)CC[C@]3(C)C(CCC4[C@@]5(C)CCC(=O)C(C)(C)C5CC[C@]43C)C2[C@H]1C (some centres unmarked) [Compound 13, ψ-taraxasterone] | 0.26 ± 0.0383 | – |
| CC1CCC2(C)CCC3(C)C4CCC5C(C)(C)C(O)CCC5(C)C4(C)CCC3(O)C2C1C (stereo not drawn) [Compound 9, ursan-3β, 13β-diol] | 0.23 ± 0.0307 | more significant activity than the positive control |

Further molecules by falling IC50, results first:

| IC50 [µM] | Compound | α-glycosidase inhibitory activity (in words) |
| --- | --- | --- |
| 0.27 ± 0.0499 | CC1(C)CC[C@]2(CO)CC[C@]3(C)C(=CCC4[C@@]5(C)C(=O)C[C@@H](O)C(C)(C)C5CC[C@]43C)C2C1 (stereo partly drawn) [Compound 1, 3α, 28-dihydroxy-12-oleanene-l-one] | more significant activity than the positive control |
| 0.23 ± 0.0135 | CC1=CCC2(C)CCC3(C)C(CCC4C5(C)CCC(O)C(C)(C)C5C(O)CC43C)C2C1C (stereo not drawn) [Compound 8, 6β-pseudotaraxasterol] | more significant activity than the positive control |
| 0.11 ± 0.0222 | CC1(C)CC[C@]2(C)CC[C@]3(C)C(=CC=C4[C@]5(C)C(CC[C@]43C)C(C)(C)[C@@H](O)C[C@@H]5O)C2C1 (some centres unmarked) [Compound 3, juglangenin A] | – |
